Experiment [1] concerns 22Rv1 prostate cancer cells. The experiment is described as follows: In vitro proliferation, 22Rv1. The experiment is classed as cell-based. Particulars: Homo sapiens, Table III, read-out: in vitro proliferation IC50 (μ/M). The protocol:
(§1) Each compounds was titrated from 3 uM to 200 uM.

The test system of experiment [2] is PSA secretion from LNCaP prostate cancer cells. The experiment is described as follows: PSA secretion from LNCaP cells (Elisa). The experiment is classed as cell-based. As to conditions: Homo sapiens, 48 hours, read-out: IC50, inhibition of PSA secretion. As to the method: Prostate-specific antigen, or PSA, is a protein produced by cells of the prostate gland. The PSA test measures the level of PSA in a person's blood. The blood level of PSA is often elevated in men with prostate cancer and it used as surrogate marker to test prostate cancer progression in human population. After the observation that CB-03-10 was able to inhibit in vivo the growth of prostate cancer, the capability of the compound to inhibit in vitro PSA secretion from cancer cells was determined. […] After 48 hours incubation with test compounds, supernatants were harvested and tested with an Elisa assay for PSA and same cells were lysed for cell viability assessment.

Experiment [3] has as its system Caspase 8, 9 and 3/7 in LNCaP cells. In words: Caspase activity in LNCaP cells. It is filed as cell-based, human. As to conditions: 24 hours. The protocol: (§2) After 24 hours test compounds were added to cells, Gemcitabine (a known pancreatic cancer chemotherapeutic agent) and DMSO were used as positive and negative control, respectively. After 8, 24, & 48 hours incubation with test compounds, cells were lysed in buffer containing the caspase 3/7 or 8 or 9 substrate and a stable luciferase in proprietary buffers. The lysates were transferred to white opaque plates before measuring luminescence in a Tecan Safire instrument. Parallel plates treated identically, were used to determine viable cells. All caspase activities were corrected for the number of viable cells.
Same assay was repeated using LNCaP prostate cancer cell lines (FIG. 12). […] The results are shown in FIG. 12 at 24 hours incubation when the caspase activities peaked.

The next experiment concerns MiaPaca2 cells. In words: Annexin V / propidium iodide apoptosis assay. As to conditions: 24 hours, control 11%. It is filed as cell-based, human. As to the method:
CB-03-10 was evaluated to determine if the mechanism of cytotoxicity on cancer cell lines was mediated by apoptosis and cell cycle arrest. Cancer cell lines were seeded in 6-well flat bottom plates. After 24 hours test compounds or DMSO vehicle (negative control) were added. After an additional 24 hours cells were scraped and stained with fluorescein conjugated Annexin V and propidium iodide and analyzed by flow cytometry.

A further experiment has as its target T1, Glucocorticoid Receptor (Homo sapiens, UniProt P04150).
T1 construct: endogenous in cells; host or cells: human kidney epithelial cells
T1 sequence (P04150 1-777): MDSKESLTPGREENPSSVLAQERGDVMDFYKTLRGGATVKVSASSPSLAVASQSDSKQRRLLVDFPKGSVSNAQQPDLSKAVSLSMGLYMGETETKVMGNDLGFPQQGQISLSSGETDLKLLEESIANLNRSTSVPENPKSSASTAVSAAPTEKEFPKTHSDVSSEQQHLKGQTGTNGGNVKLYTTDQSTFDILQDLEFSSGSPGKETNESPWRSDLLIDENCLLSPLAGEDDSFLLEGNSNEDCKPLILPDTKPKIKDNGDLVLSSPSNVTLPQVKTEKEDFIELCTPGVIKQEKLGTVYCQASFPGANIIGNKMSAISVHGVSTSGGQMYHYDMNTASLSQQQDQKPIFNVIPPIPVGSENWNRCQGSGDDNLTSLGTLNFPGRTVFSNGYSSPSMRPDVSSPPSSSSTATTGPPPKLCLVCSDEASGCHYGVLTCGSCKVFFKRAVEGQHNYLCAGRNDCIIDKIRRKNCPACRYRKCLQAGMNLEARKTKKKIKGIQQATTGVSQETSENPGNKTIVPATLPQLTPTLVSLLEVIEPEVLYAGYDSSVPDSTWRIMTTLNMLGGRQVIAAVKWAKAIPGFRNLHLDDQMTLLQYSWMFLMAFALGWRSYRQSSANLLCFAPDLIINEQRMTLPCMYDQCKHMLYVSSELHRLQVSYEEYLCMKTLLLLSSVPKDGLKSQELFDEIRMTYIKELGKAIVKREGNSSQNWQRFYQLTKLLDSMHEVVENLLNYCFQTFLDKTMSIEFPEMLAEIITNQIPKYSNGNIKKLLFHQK
The experiment is described as follows: GR reporter assay, agonist mode. The experiment is classed as cell-based. Particulars: at very high concentrations. As to the method:
The androgen and glucocorticoid hormones elicit divergent and often opposing effects in cells, tissues, and animals. […] CB-03-10 GR antagonist and agonist activities were tested in an in vitro assay. Briefly, human kidney epithelial cells were transfected with DNA construct containing GR binding sites linked to luminescent based reporter molecule. After 24 hours, cells were treated under antagonist or agonist modes. After an additional 24 hours, luminescence which is proportional to GR agonist transcriptional activity was quantitated.
Agonist Assay—was based on induction of luminescence by CB-03-10
The agonist activity of CB-03-10 was compared to a RU486 which is known to not have agonist activity.

The test system of experiment [4] is Caspase 8, 9 and 3/7 in MiaPaca2 cells. In words: Caspase activity in MiaPaca2 cells. It is filed as cell-based, human. As to the method:
From previous studies was determined that CB-03-10 induces apoptosis using Annexin V staining in MiaPaca2 cells. To better analyze the phenomenon the enzymatic activity of Caspase 8 (initiator caspase for Extrinsic Pathway) and Caspase 9 (initiator caspase for Intrinsic Pathway) and of Caspases 3 and 7 (effector caspases) were measured.
as §2

The subject of experiment [5] is HT29 epithelial intestinal cancer cells. In words: MTT colorimetric assay on HT29. The experiment is classed as cell-based. Particulars: Homo sapiens, 72 h. As to the method: The experiment was performed to test and define anticancer activity in vitro of Cortexolone 17α-benzoate and cortexolone 17α-valerate-21-propionate on cell lines representatives of epithelial intestinal tumors, namely HT29. The experiment method consisted in: • 1. Monolayer HT-29 cells were plated in: 96-wells plates at the density of 2×10^4 cells/mL. The cells plated were kept at 37° C. in 5% CO2 and left to attach for 24 h. • 2. Thereafter the cells were incubated for 72 h with the test compounds at the concentrations each of […]. • 3. After 72 h of treatment, the MTT colorimetric assay was performed.
A general note: Formazan colour is commonly taken as a measure of viable cells.

The next experiment concerns LNCaP cells. In words: LNCaP cell viability in the PSA secretion experiment. As to conditions: Homo sapiens, 48 hours, same cells as PSA assay. It is filed as cell-based. The protocol:
Prostate-specific antigen, or PSA, is a protein produced by cells of the prostate gland. The PSA test measures the level of PSA in a person's blood. The blood level of PSA is often elevated in men with prostate cancer and it used as surrogate marker to test prostate cancer progression in human population. […] After 48 hours incubation with test compounds, supernatants were harvested and tested with an Elisa assay for PSA and same cells were lysed for cell viability assessment.

The next experiment concerns HT29 colon cancer cells. The experiment is described as follows: In vitro proliferation, HT29 (cancer cell panel). It is filed as cell-based. As to conditions: Homo sapiens. The protocol: as §1

Where two headings read alike, the source gives them in different places. Where only a bound is given, the exact number is not on record here.

Turning to `CCCCC(=O)O[C@]1(C(=O)COC(=O)CC)CC[C@H]2[C@@H]3CCC4=CC(=O)CC[C@]4(C)[C@H]3CC[C@@]21C` [CB-03-10, cortexolone 17α-valerate-21-propionate], the IC50 in experiment [1] turned out to be 18 µM; in experiment [2], 9 µM; with LNCaP cells, 11 µM; in the experiment on HT29 colon cancer cells (HT-29, read-out: In vitro proliferation IC50 (micro Molar)), 14 µM; with HT29 colon cancer cells (HT-29, read-out: in vitro proliferation IC50 (μ/M)) it was 14 µM. Also, the “induction of Initiator (8 and 9) and Effector (3/7) caspase activities” value in [3] is “better than Enzalutamide”. Further, the “cells in apoptosis (early and late), total” value with MiaPaca2 cells amounted to 28%. For the same compound, at Glucocorticoid Receptor, the “GR agonist activity relative to 50 nM Dex” value worked out at 20%. Moreover, in experiment [4] (8, 24, 48 hours), the “Caspase 3/7 induction” value was “already at 8 hours at and a really high level after 48 hours incubation”. In [4] (20 or 50 μM, 8, 24, 48 hours, corrected for viable cells), the “increase in Caspase 8 and 9 activity compared to control” value is listed as at most 7 fold. Moreover, the inhibition at 0.8 µM in [5] (HT-29, 0.8 micromolar) stood at 0.44%. Besides, the inhibition at 4 µM in experiment [5] (HT-29, 4 micromolar) turned out to be 14.2%. For the same compound, the inhibition at 20 µM in experiment [5] (HT-29, 20 micromolar) was 25.5%. Moreover, the inhibition at 100 µM in experiment [5] (HT-29, 100 micromolar) was 89.8%. In [5] (HT-29, 500 micromolar), this compound displayed an inhibition at 500 µM of 92.1%.

As usually defined, the inhibition is the share of the control response that was lost under treatment. Higher therefore signals a strong effect.

These data come from patent US10183030B2, “17α,21-diesters of cortexolone for use in the treatment of tumors” (COSMO TECHNOLOGIES LTD., priority 2014, dated 2019).
